# From patent US8598114B2, “Antimicrobial compounds” (priority 2007, dated 2013)
# Peptide text beside a SMILES is read from it. * marks the point of attachment. NHPhenethyl = c1ccc(CCN*)cc1
# Assays:
# trypsin = experiment: in vitro; assay type: in vitro ADME; details: pH 8.6
# Method: Measurements and Calculation of Peptide Half-Life
# Each peptide was dissolved in a 0.1 M NH4HCO3 buffer (pH 6.5) to yield a final peptide concentration of 1 mg/ml. A trypsin solution was prepared by dissolving 1 mg of trypsin in 50 ml 0.1 M NH4HCO3 buffer (pH 8.2). For the stability determination, 250 μl freshly made trypsin solution and 250 μl peptide solution were incubated in 2 ml of 0.1 M NH4HCO3 buffer (pH 8.6) at 37° C. on a rocking table. Aliquots of 0.5 ml were sampled at different time intervals, diluted with 0.5 ml water:acetonitrile (60:40 v/v) containing 1% TFA and analysed by RP-HPLC as described above. Samples without trypsin addition taken at 0 h and after 20 h at 37° C. were used as negative controls. Integration of the peak area at 254 nm for samples taken during the first 5 hours of the assay was used to generate the τ1/2.
# S. aureus = experiment: Minimal inhibitory concentration (Example 6); assay type: cell-based
# E. coli = experiment: Minimal inhibitory concentration (Example 6); assay type: cell-based
# MRSA = experiment: Minimal inhibitory concentration (Example 6); assay type: cell-based
# Str. pyogenes = experiment: Minimal inhibitory concentration (Example 6); assay type: cell-based
smiles,measurement,setting,value
"N=C(N)NCCC[C@H](NC(=O)[C@H](Cc1c[nH]c2ccccc12)NC(=O)[C@@H](N)CCCNC(=N)N)C(=O)NCCc1ccccc1 [Compound 6, reference compound] (H-Arg-Trp-Arg-NHPhenethyl)",half-life at 0.1 mg/ml,trypsin; isolated enzyme trypsin,7 h
N=C(N)NCCC[C@H](NC(=O)[C@H](Cc1ccc(-c2ccc(-c3ccccc3)cc2)cc1)NC(=O)[C@@H](N)CCCNC(=N)N)C(=O)NCCc1ccccc1 [Compound 5],half-life at 0.1 mg/ml,trypsin,> 24 h
N=C(N)NCCC[C@H](NC(=O)[C@H](Cc1ccc(-c2cccc3ccccc23)cc1)NC(=O)[C@@H](N)CCCNC(=N)N)C(=O)NCCc1ccccc1 [Compound 3],half-life at 0.1 mg/ml,trypsin; isolated enzyme trypsin,20 h
"CC(C)(C)c1cc(C(C)(C)C)c2[nH]c(C(C)(C)C)c(C[C@H](NC(=O)[C@@H](N)CCCNC(=N)N)C(=O)N[C@@H](CCCNC(=N)N)C(=O)NCCc3ccccc3Br)c2c1 [—(CH2)2—(2-BrPh), H-Arg-Tbt-Arg-NH(CH)2(2-Br-phenyl)]",Minimal inhibitory concentration S. aureus,S. aureus,3 µg/mL
same,Minimal inhibitory concentration E. coli,E. coli,6 µg/mL
same,Minimal inhibitory concentration MRSA,MRSA,3 µg/mL
same,Minimal inhibitory concentration Str. pyogenes,Str. pyogenes,3 µg/mL
